Experiments:
[1] = test system: A549 human lung cancer tumor; assay: Tissue distribution in lung tumor-bearing nude mice; type: in vivo
Method: Female athymic nude mice (NCr-nu/nu, NCI, Bethasda, Md.) were inoculated with human lung cancer cells (A549 tumor cell line, 3×10^6 cells/mouse, intramuscular) by one author in the mid-dorsal region. After the tumor reached 6 mm, separate biodistribution studies using ^99mTc-EC-DG and 18F-FDG were conducted. Each received ^99mTc-EC-DG or 18F-FDG intravenously (n=3/time point). The injection activity was 1-3 μCi/mouse. The injected mass of ^99mTc-EC-DG was 0.2 mg/rodent.

[2] = test system: RBA CRL-1747 mammary tumor; assay: Biodistribution in breast (mammary) tumor-bearing rats; type: in vivo, rat; settings: Table 2
Method: (§1) Biodistribution was assessed in mammary tumor-bearing rats (RBA CRL-1747, n=3/time interval, iv). Studies were performed 14 to 17 days after implantation when tumors reached approximately 1 cm in diameter. Following administration of the radiotracer, rats were sacrificed at 0.5-4 hrs. The selected tissues were excised, weighed and counted for radioactivity by using a gamma counter (Packard Instruments, Downers Grove, Ill.). The biodistribution of tracer in each sample was calculated as percentage of the injected dose per gram of tissue wet weight (% ID/g).
as §1, with “breast” for “mammary”

RBA CRL-1747 = assay: In vitro cellular uptake and blocking of ^99mTc-EC-angiostatin with unlabeled angiostatin; type: cell-based, rat; settings: unlabeled angiostatin 0-200 μM, RBA CRL-1747, 2 hours; read-out: IC-50 of angiostatin (inhibition of ^99mTc-EC-angiostatin uptake)
Method: The IC-50 of angiostatin was 176 μM (R^2=0.998) (FIG. 3).

## OC[C@H]1OC(O)[C@H]([18F])[C@@H](O)[C@@H]1O (stereo partly drawn) [^18FDG, [^18F]fluorodeoxyglucose, reference compound]
[1]; 30 min
  Blood: 0.793 ± 0.067 % of injected dose per gram of tissue weight
  Brain: 6.557 ± 0.390 % of injected dose per gram of tissue weight
  Heart: 11.94 ± 2.571 % of injected dose per gram of tissue weight
  Intestine: 2.322 ± 0.542 % of injected dose per gram of tissue weight
  Kidney: 1.137 ± 0.117 % of injected dose per gram of tissue weight
  Liver: 1.051 ± 0.057 % of injected dose per gram of tissue weight
  Lung: 2.490 ± 0.209 % of injected dose per gram of tissue weight
  Muscle: 4.876 ± 0.621 % of injected dose per gram of tissue weight
  Spleen: 1.824 ± 0.196 % of injected dose per gram of tissue weight
  Stomach: 5.046 ± 0.461 % of injected dose per gram of tissue weight
  Thyroid: 4.490 ± 0.526 % of injected dose per gram of tissue weight
  Tumor: 2.226 ± 0.150 % of injected dose per gram of tissue weight
  Tumor/Blood: 2.821 ± 0.144
  Tumor/Lung: 0.912 ± 0.119
  Tumor/Muscle: 0.463 ± 0.026
[1]; 2 h
  Blood: 0.236 ± 0.009 % of injected dose per gram of tissue weight
  Brain: 3.113 ± 0.132 % of injected dose per gram of tissue weight
  Heart: 20.33 ± 7.675 % of injected dose per gram of tissue weight
  Intestine: 2.764 ± 0.496 % of injected dose per gram of tissue weight
  Kidney: 0.553 ± 0.104 % of injected dose per gram of tissue weight
  Liver: 0.586 ± 0.040 % of injected dose per gram of tissue weight
  Lung: 2.222 ± 0.137 % of injected dose per gram of tissue weight
  Muscle: 5.409 ± 0.611 % of injected dose per gram of tissue weight
  Spleen: 1.903 ± 0.144 % of injected dose per gram of tissue weight
  Stomach: 4.374 ± 0.864 % of injected dose per gram of tissue weight
  Thyroid: 4.617 ± 0.400 % of injected dose per gram of tissue weight
  Tumor: 1.699 ± 0.172 % of injected dose per gram of tissue weight
  Tumor/Blood: 7.261 ± 1.007
  Tumor/Lung: 0.775 ± 0.113
  Tumor/Muscle: 0.319 ± 0.031
[1]; 4 h
  Blood: 0.203 ± 0.062 % of injected dose per gram of tissue weight
  Brain: 2.065 ± 0.080 % of injected dose per gram of tissue weight
  Heart: 19.35 ± 8.286 % of injected dose per gram of tissue weight
  Intestine: 1.562 ± 0.342 % of injected dose per gram of tissue weight
  Kidney: 0.568 ± 0.027 % of injected dose per gram of tissue weight
  Liver: 0.785 ± 0.039 % of injected dose per gram of tissue weight
  Lung: 2.280 ± 0.182 % of injected dose per gram of tissue weight
  Muscle: 4.743 ± 0.610 % of injected dose per gram of tissue weight
  Spleen: 1.591 ± 0.161 % of injected dose per gram of tissue weight
  Stomach: 2.278 ± 0.455 % of injected dose per gram of tissue weight
  Thyroid: 4.424 ± 0.442 % of injected dose per gram of tissue weight
  Tumor: 1.606 ± 0.182 % of injected dose per gram of tissue weight
  Tumor/Blood: 8.932 ± 1.973
  Tumor/Lung: 0.717 ± 0.106
  Tumor/Muscle: 0.346 ± 0.048
[1]; A549 nude mice, iv
  tumor-to-tissue ratios, ^99mTc-EC-DG versus 18F-FDG: higher tumor/blood ratios

## O=C([O-])[C@H](C[S-])NCCN[C@@H](CS)C(=O)[O-].[O]=[Tc+3] [^99mTc-EC, ^99mTc-L,L-ethylenedicysteine, reference compound]
[2]; 1 Hour
  Blood: 0.273 ± 0.039 % ID/g
  Intestine: 0.787 ± 0.106 % ID/g
  Kidney: 8.991 ± 0.268 % ID/g
  Liver: 0.367 ± 0.006 % ID/g
  Lung: 0.187 ± 0.029 % ID/g
  Muscle: 0.043 ± 0.002 % ID/g
  Stomach: 0.127 ± 0.106 % ID/g
  Thyroid: 0.229 ± 0.118 % ID/g
  Tumor: 0.149 ± 0.020 % ID/g
  Tumor/Blood: 0.544 ± 0.004
  Tumor/Lung: 0.797 ± 0.022
  Tumor/Muscle: 3.414 ± 0.325
  Urine: 11.045 ± 6.158 % ID/g
[2]; 2 Hour
  Blood: 0.211 ± 0.001 % ID/g
  Intestine: 0.401 ± 0.093 % ID/g
  Kidney: 9.116 ± 0.053 % ID/g
  Liver: 0.286 ± 0.073 % ID/g
  Lung: 0.144 ± 0.002 % ID/g
  Muscle: 0.028 ± 0.009 % ID/g
  Stomach: 0.037 ± 0.027 % ID/g
  Thyroid: 0.106 ± 0.003 % ID/g
  Tumor: 0.115 ± 0.002 % ID/g
  Tumor/Blood: 0.546 ± 0.010
  Tumor/Lung: 0.797 ± 0.002
  Tumor/Muscle: 4.425 ± 1.397
  Urine: 13.192 ± 4.505 % ID/g
[2]; 4 Hour
  Blood: 0.149 ± 0.008 % ID/g
  Intestine: 0.103 ± 0.009 % ID/g
  Kidney: 7.834 ± 1.018 % ID/g
  Liver: 0.234 ± 0.016 % ID/g
  Lung: 0.120 ± 0.012 % ID/g
  Muscle: 0.019 ± 0.001 % ID/g
  Stomach: 0.043 ± 0.014 % ID/g
  Thyroid: 0.082 ± 0.005 % ID/g
  Tumor: 0.096 ± 0.005 % ID/g
  Tumor/Blood: 0.649 ± 0.005
  Tumor/Lung: 0.798 ± 0.007
  Tumor/Muscle: 5.093 ± 0.223
  Urine: 8.693 ± 2.981 % ID/g
[2]; 30 Min.
  Blood: 0.435 ± 0.29 % ID/g
  Intestine: 0.173 ± 0.029 % ID/g
  Kidney: 7.914 ± 0.896 % ID/g
  Liver: 0.508 ± 0.062 % ID/g
  Lung: 0.272 ± 0.019 % ID/g
  Muscle: 0.060 ± 0.006 % ID/g
  Stomach: 0.136 ± 0.060 % ID/g
  Thyroid: 0.219 ± 0.036 % ID/g
  Tumor: 0.342 ± 0.163 % ID/g
  Tumor/Blood: 0.776 ± 0.322
  Tumor/Lung: 1.256 ± 0.430
  Tumor/Muscle: 5.841 ± 3.253
  Urine: 9.124 ± 0.808 % ID/g

## angiostatin
RBA CRL-1747
  IC50: 176 µM

Source: US9050378B2, “N2S2 chelate-targeting ligand conjugates” (Board of Regents, The University of Texas System, priority 2003, dated 2015)
